{"source": "paper PMC10702835", "about": "“Recognition of centromere‐specific histone Cse4 by the inner kinetochore Okp1‐Ame1 complex” (EMBO Reports, 2023)", "key": {"Okp1(EYAA)‐Ame1": {"biological_target": "T1, Okp1(EYAA)‐Ame1 (Saccharomyces cerevisiae, UniProt P38313+P53298, E235A/Y238A)", "T1 construct": "Full‐length mutant Okp1‐Ame1 complex (EYAA or I195Y as indicated) was tested for its association with FITC‐Cse4^END; 6His (C); made in house; host or cells: E. coli", "T1 sequence (P38313 whole entry)": "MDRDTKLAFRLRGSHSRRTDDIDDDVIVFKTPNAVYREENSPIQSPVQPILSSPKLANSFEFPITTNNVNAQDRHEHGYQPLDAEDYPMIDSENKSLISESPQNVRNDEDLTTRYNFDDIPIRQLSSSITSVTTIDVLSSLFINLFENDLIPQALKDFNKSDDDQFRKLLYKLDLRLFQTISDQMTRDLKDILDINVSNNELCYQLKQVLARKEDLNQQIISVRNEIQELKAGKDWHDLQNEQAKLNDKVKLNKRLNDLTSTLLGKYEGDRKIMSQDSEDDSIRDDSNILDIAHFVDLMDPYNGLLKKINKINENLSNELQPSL", "T1 sequence (P53298 whole entry E235A/Y238A)": "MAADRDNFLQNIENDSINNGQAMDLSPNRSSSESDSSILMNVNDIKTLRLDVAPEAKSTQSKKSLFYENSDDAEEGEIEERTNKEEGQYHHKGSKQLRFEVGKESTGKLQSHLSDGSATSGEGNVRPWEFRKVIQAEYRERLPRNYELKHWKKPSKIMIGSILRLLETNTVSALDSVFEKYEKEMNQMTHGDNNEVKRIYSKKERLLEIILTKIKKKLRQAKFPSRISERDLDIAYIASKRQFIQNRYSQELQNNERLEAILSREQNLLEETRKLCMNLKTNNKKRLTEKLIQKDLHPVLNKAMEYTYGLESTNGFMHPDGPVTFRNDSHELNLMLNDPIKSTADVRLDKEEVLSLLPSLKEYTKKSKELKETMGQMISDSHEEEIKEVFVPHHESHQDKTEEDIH", "assay": "biochemical", "format": "binding", "description": "(§1) Results of a GST pulldown assay are shown. • The minimal Okp1‐Ame1 complex used for crystallography was tested for its association with FITC‐Cse4^END in a fluorescence polarization experiment.\n(§2) Fluorescence polarization assays\n(§3) FITC‐Cse4^28‐60 peptide was synthesized by the Tufts University Core Facility. 20 nM of FITC‐Cse4^28‐60 peptide was used in all reactions, and Okp1‐Ame1 concentrations were varied to determine the dissociation constant (K D ), in reaction buffer containing 100 mM HEPES, pH 7.5, 200 mM NaCl, 1 mM TCEP (full‐length Okp1‐Ame1 complex) or reaction buffer with 600 mM NaCl (truncated Okp1‐Ame1 complex)."}, "Okp1‐Ame1(I195Y)": {"biological_target": "T2, Okp1‐Ame1(I195Y) (Saccharomyces cerevisiae, UniProt P38313+P53298, I195Y)", "T2 construct": "Full‐length mutant Okp1‐Ame1 complex (EYAA or I195Y as indicated) was tested for its association with FITC‐Cse4^END; 6His (C); made in house; host or cells: E. coli", "T2 sequence (P38313 whole entry I195Y)": "as the sequence (P38313 whole entry) above, with I195Y counted along it", "T2 sequence (P53298 whole entry)": "as the sequence (P53298 whole entry E235A/Y238A) above, with A235E, A238Y counted along it", "assay": "biochemical", "format": "binding", "description": "as §1, §2, §3"}}, "note": "pKd: −log10 of the molar value."}
{"compound": "CC[C@H](C)[C@H](NC(=O)[C@H](CO)NC(=O)[C@H](CCC(N)=O)NC(=O)[C@H](CCC(N)=O)NC(=O)[C@H](CC(=O)O)NC(=O)CNC(=O)[C@H](C)N)C(=O)N[C@@H](CC(N)=O)C(=O)N[C@@H](CC(=O)O)C(=O)N[C@@H](CCCNC(=N)N)C(=O)N[C@@H](C)C(=O)N[C@@H](CC(C)C)C(=O)N[C@@H](CO)C(=O)N[C@@H](CC(C)C)C(=O)N[C@@H](CC(C)C)C(=O)N[C@@H](CCC(N)=O)C(=O)N[C@@H](CCCNC(=N)N)C(=O)N[C@H](C(=O)N[C@@H](CCCNC(=N)N)C(=O)N[C@@H](C)C(=O)N[C@H](C(=O)N[C@@H](CCCCN)C(=O)N[C@@H](CC(N)=O)C(=O)N[C@@H](CC(C)C)C(=O)N[C@@H](Cc1ccccc1)C(=O)N1CCC[C@H]1C(=O)N[C@@H](CCCNC(=N)N)C(=O)N[C@@H](CCCNC(=N)N)C(=O)N[C@@H](CCC(=O)O)C(=O)N[C@@H](CCC(=O)O)C(=O)N[C@@H](CCCNC(=N)N)C(=O)N[C@@H](CCCNC(=N)N)C(=O)N[C@@H](CCCNC(=N)N)C(=O)O)[C@@H](C)O)[C@@H](C)O", "note": "[Cse4^END]", "values": [{"measurement": "pKd", "setting": "Okp1(EYAA)‐Ame1", "value": "< 5.52"}, {"measurement": "pKd", "setting": "Okp1‐Ame1(I195Y)", "value": "< 5.52"}]}
